The values that follow come from ChEMBL document CHEMBL1201862, “PubChem BioAssay data set” (2004).

Test systems include SF-295; U-251; SK-MEL-2; OVCAR-3; SR; KM12; NCI-H226; MDA-N; SF-539; EKVX; HT-29; MCF7; RXF 393; BT-549; SK-MEL-5; SK-OV-3; COLO 205; DU-145; SF-268; SW-620.
Common to all, as to assay: NCI-60 cell line screen, 48 h

SMILES strings stand for the structures.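 Where inhibition never reached the appropriate level, the endpoint shown equals the highest concentration tested. Otherwise, values were interpolated linearly from a five-concentration, 48-hour dose response in 96-well plates. The concentration for 50% growth inhibition is given as GI50.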 The source made the active and inactive calls. No stated cut-off is given here; in the data, active = GI50 up to about 1.1 µM and inactive = higher.

As for `CNC(=O)OCc1nc(SC)n(C)c1COC(=O)NC`, the GI50 in the test on SF-295 was 187 µM (inactive); in the test with U-251, 166 µM (inactive); in the test on SK-MEL-2 it was 119 µM (inactive); in the test on OVCAR-3, 187 µM (inactive); with SR, 71.4 µM (inactive); with KM12, 191 µM (inactive). The GI50 in the test with NCI-H226 is 83.8 µM (inactive); with MDA-N it was 161 µM (inactive); with SF-539, 133 µM (inactive); in the test with EKVX, 230 µM (inactive); with HT-29 it was 205 µM (inactive); in the test on MCF7, 132 µM (inactive). Further, the GI50 with RXF 393 was 50.8 µM (inactive); with BT-549 it was 118 µM (inactive); with SK-MEL-5, 153 µM (inactive); in the test with SK-OV-3, 63 µM (inactive); with COLO 205, 146 µM (inactive); with DU-145 it was > 81.3 µM (inactive). Also, the GI50 with SF-268 is 119 µM (inactive); in the test on SW-620, 172 µM (inactive).
Consider `c1ccc(-c2nnc(-c3ccccn3)c3c2C[C@@H]2C[C@@H]4Cc5c(-c6ccccn6)nnc(-c6ccccn6)c5[C@@H]4[C@H]32)nc1`, for which the GI50 in the test with SF-295 is 58.9 µM (inactive); in the test on U-251, 22.2 µM (inactive); in the test with SK-MEL-2 it was 51.1 µM (inactive); with OVCAR-3 it was 85.9 µM (inactive); in the test with SR, 41.4 µM (inactive); with KM12 it was 51.2 µM (inactive). Besides, the GI50 is 24.2 µM (inactive) in the test with NCI-H226; 46.6 µM (inactive) with MDA-N; 85.7 µM (inactive) in the test with SF-539; 18 µM (inactive) in the test with EKVX; 44.9 µM (inactive) in the test with HT-29; 66.1 µM (inactive) in the test on MCF7. For the same compound, the GI50 was > 100 µM (inactive) with RXF 393; 41.2 µM (inactive) in the test with BT-549; 27.8 µM (inactive) in the test with SK-MEL-5; > 100 µM (inactive) in the test with SK-OV-3; 35.1 µM (inactive) with COLO 205; 38.8 µM (inactive) with DU-145. Besides, the GI50 with SF-268 is 35 µM (inactive); in the test on SW-620 it was 63.1 µM (inactive).
Regarding `CCOC(=O)NC(C(F)(F)F)(C(F)(F)F)P(=O)(OC(C)C)OC(C)C`, the GI50 in the test with SF-295, in the test with U-251, in the test with SK-MEL-2, in the test with OVCAR-3, in the test on SR and in the test with KM12 was > 100 µM (inactive) throughout. Besides, the GI50 is 58.7 µM (inactive) in the test with NCI-H226; > 100 µM (inactive) with MDA-N; > 100 µM (inactive) with SF-539; > 100 µM (inactive) in the test on EKVX; > 100 µM (inactive) in the test with HT-29; > 100 µM (inactive) with MCF7. For the same compound, the GI50 with RXF 393, in the test with BT-549, in the test with SK-MEL-5, in the test on SK-OV-3, with COLO 205 and with DU-145 was > 100 µM (inactive) throughout. Further, the GI50 in the test with SF-268 and in the test with SW-620 was > 100 µM (inactive) in each case.
Turning to `Cn1c(=O)sc2cc(C(=S)N3CCOCC3)ccc21`, the GI50 with SF-295 is > 100 µM (inactive); in the test on U-251, > 59.7 µM (inactive); in the test on SK-MEL-2 it was > 100 µM (inactive); in the test on OVCAR-3 it was > 100 µM (inactive); in the test on SR, 69.7 µM (inactive); in the test on KM12 it was > 100 µM (inactive). The GI50 was > 46.9 µM (inactive) in the test with NCI-H226; > 100 µM (inactive) with MDA-N; > 100 µM (inactive) in the test on SF-539; > 28.8 µM (inactive) in the test with EKVX; > 79.3 µM (inactive) in the test on HT-29; > 100 µM (inactive) in the test on MCF7. The GI50 is > 100 µM (inactive) in the test on RXF 393; > 100 µM (inactive) in the test with BT-549; > 100 µM (inactive) in the test with SK-MEL-5; > 100 µM (inactive) in the test with SK-OV-3; > 80.7 µM (inactive) in the test with COLO 205; > 100 µM (inactive) in the test with DU-145. The GI50 with SF-268 and in the test with SW-620 was > 100 µM (inactive) in each case.
In the case of `CC1=C(C(=O)NNC(=O)C(N)=O)CC(C(=O)NNC(=O)C(N)=O)=C(C)N1`, the GI50 in the test with SF-295, in the test on U-251, in the test on SK-MEL-2, with OVCAR-3, in the test on SR and in the test on KM12 was > 100 µM (inactive) in each case. For the same compound, the GI50 in the test with NCI-H226, with MDA-N, in the test on SF-539, in the test with EKVX, in the test on HT-29 and in the test on MCF7 was > 100 µM (inactive) in each case. The GI50 in the test with RXF 393, in the test with BT-549, in the test with SK-MEL-5, with SK-OV-3, with COLO 205 and with DU-145 was > 100 µM (inactive) throughout. Moreover, the GI50 with SF-268 and with SW-620 was > 100 µM (inactive) in each case.
In the case of `N#CC1(C#N)C2=C(CCCC2)NC(c2ccc(Br)cc2)C1(C#N)C#N` (stereo not given), the GI50 is 22.8 µM (inactive) with SF-295; 13.5 µM (inactive) in the test on U-251; 15.6 µM (inactive) in the test on SK-MEL-2; 6.56 µM (inactive) with OVCAR-3; 0.782 µM (active) in the test on SR; 15.1 µM (inactive) in the test with KM12. In addition, the GI50 is 20.2 µM (inactive) with NCI-H226; 4.26 µM (inactive) in the test with MDA-N; 14.2 µM (inactive) in the test on SF-539; 12.4 µM (inactive) in the test on EKVX; 2.55 µM (inactive) with HT-29; 5.32 µM (inactive) in the test with MCF7. For the same compound, the GI50 in the test with RXF 393 is 2.24 µM (inactive); in the test with BT-549, 13.8 µM (inactive); in the test with SK-MEL-5, 15.5 µM (inactive); in the test with SK-OV-3, 22.7 µM (inactive); in the test on COLO 205, 1.24 µM (inactive); in the test with DU-145, 12.5 µM (inactive). For the same compound, the GI50 is 7.78 µM (inactive) in the test with SF-268 and 1.31 µM (inactive) with SW-620.
`COc1ccc(/N=C2/SC(=N/N=c3\sc4ccccc4n3C)S/C2=N/c2ccc(OC)cc2)cc1`: the GI50 is 51.8 µM (inactive) with SF-295; 55.5 µM (inactive) in the test with U-251; > 100 µM (inactive) in the test on SK-MEL-2; > 100 µM (inactive) in the test on OVCAR-3; > 100 µM (inactive) with SR; > 100 µM (inactive) in the test on KM12. Moreover, the GI50 with NCI-H226 is 49 µM (inactive); in the test with MDA-N, > 100 µM (inactive); with SF-539, > 100 µM (inactive); in the test with EKVX, > 100 µM (inactive); in the test on HT-29, > 100 µM (inactive); with MCF7, > 100 µM (inactive). Also, the GI50 is 34 µM (inactive) in the test with RXF 393; 67.9 µM (inactive) with BT-549; 98.9 µM (inactive) with SK-MEL-5; 76.7 µM (inactive) in the test on SK-OV-3; > 100 µM (inactive) in the test on COLO 205; > 100 µM (inactive) with DU-145. The GI50 with SF-268 and in the test on SW-620 was > 100 µM (inactive) throughout.
For `O=c1[nH]cnc2c1ncn2[C@H]1CO[C@@H](CO)[C@@H]1O`, the GI50 in the test on SF-295, in the test on U-251, in the test with SK-MEL-2, in the test on OVCAR-3, in the test with SR and in the test with KM12 was > 100 µM (inactive) throughout. Further, the GI50 in the test with NCI-H226, in the test with MDA-N, in the test on SF-539, in the test on EKVX, in the test on HT-29 and in the test with MCF7 was > 100 µM (inactive) throughout. Further, the GI50 in the test on RXF 393, in the test with BT-549, with SK-MEL-5, in the test on SK-OV-3, in the test with COLO 205 and with DU-145 was > 100 µM (inactive) in each case. Besides, the GI50 in the test on SF-268 and in the test with SW-620 was > 100 µM (inactive) throughout.
For the compound `CCCCCCCCCCCC(=O)OC[C@H](C[As](=O)(O)O)OC(=O)CCCCCCCCCCC`, the GI50 was 13.4 µM (inactive) in the test on SF-295; 2.36 µM (inactive) with U-251; 2.68 µM (inactive) with SK-MEL-2; 5.92 µM (inactive) in the test with OVCAR-3; 9.68 µM (inactive) with SR; 8.11 µM (inactive) in the test on KM12. The GI50 with NCI-H226 was 14.8 µM (inactive); in the test on MDA-N, 4.34 µM (inactive); in the test on SF-539, 14.2 µM (inactive); with EKVX, 10.2 µM (inactive); in the test on HT-29, 8.02 µM (inactive); in the test with MCF7, 8.75 µM (inactive). Besides, the GI50 was 1.92 µM (inactive) with RXF 393; 3.84 µM (inactive) with BT-549; 1.99 µM (inactive) with SK-MEL-5; 14.7 µM (inactive) in the test with SK-OV-3; 19.4 µM (inactive) in the test on COLO 205; 17.3 µM (inactive) with DU-145. For the same compound, the GI50 in the test with SF-268 is 8.13 µM (inactive); in the test on SW-620, 14.4 µM (inactive).
Take `COC(=O)c1ccc(C)cc1C1CN=NC12Cc1c(C)cccc1C2=O` (stereo not given): the GI50 in the test on SF-295 was 50.4 µM (inactive); with U-251 it was 42.1 µM (inactive); in the test on SK-MEL-2, 43.5 µM (inactive); in the test on OVCAR-3 it was 27 µM (inactive); in the test on SR, 33.3 µM (inactive); with KM12 it was 32.1 µM (inactive). Moreover, the GI50 is 47 µM (inactive) in the test with NCI-H226; 37.5 µM (inactive) in the test with MDA-N; 89.1 µM (inactive) in the test with SF-539; > 100 µM (inactive) with EKVX; 31.1 µM (inactive) with HT-29; 0.394 µM (active) with MCF7. Moreover, the GI50 in the test with RXF 393 is 48.3 µM (inactive); with BT-549, 75 µM (inactive); in the test on SK-MEL-5, 30 µM (inactive); with SK-OV-3, 94.8 µM (inactive); in the test with COLO 205 it was 20.2 µM (inactive); with DU-145, 55.7 µM (inactive). For the same compound, the figures for the GI50 in the test on SF-268 and with SW-620 were 52.2 µM (inactive) and 58.9 µM (inactive), respectively.
